In patent US20230021562A1, “[…] D[…]-1 INHIBITORS” (priority 2019, published 2023):
Several values for one entry are separate records, joined by “and”; a condition that tells them apart may be missing. Equal values may be shown once. Read-outs that look alike come from different tables or passages of the source.

Assays:
[1] = molecular target: Myeloid Cell Leukemia 1 (Mcl-1) (Homo sapiens, UniProt Q07820); assay: biochemical; format: binding; conditions: HTRF Ki (nM)
[2] = test system: MOLP-8 human multiple myeloma cell line; assay: MOLP8 Caspase-Glo 3/7 luminescent assay; format: cell-based; conditions: averaged over all runs on all batches
Text: (§1) MCL-1 is a regulator of apoptosis and is highly over-expressed in tumor cells that escape cell death. The assay evaluates the cellular potency of small-molecule compounds targeting regulators of the apoptosis pathway, primarily MCL-1, Bfl-1, Bcl-2, and other proteins of the Bcl-2 family. Protein-protein inhibitors disrupting the interaction of anti-apoptotic regulators with BH3-domain proteins initiate apoptosis.
The Caspase-Glo® 3/7 Assay is a luminescent assay that measures caspase-3 and -7 activities in purified enzyme preparations or cultures of adherent or suspension cells. The assay provides a proluminescent caspase-3/7 substrate, which contains the tetrapeptide sequence DEVD. This substrate is cleaved to release aminoluciferin, a substrate of luciferase used in the production of light. Addition of the single Caspase-Glo® 3/7 Reagent in an “add-mix-measure” format results in cell lysis, followed by caspase cleavage of the substrate and generation of a “glow-type” luminescent signal.
This assay uses the MOLP-8 human multiple myeloma cell line, which is sensitive to MCL-1 inhibition.
Cell cultures were maintained between 0.2 and 2.0×10^6 cells/mL. The cells were harvested by collection in 50 mL conical tubes. The cells were then pelleted at 500 g for 5 mins before removing supernatant and resuspension in fresh pre-warmed culture medium. The cells were counted and diluted as needed.
The assay reagent was prepared by transferring the buffer solution to the substrate vial and mixing. The solution may be stored for up to 1 week at 4° C. with negligible loss of signal.
Compounds were delivered in assay-ready plates (Proxiplate) and stored at −20° C.
Assays always include 1 reference compound plate containing reference compounds. The plates were spotted with 40 nL of compounds (0.5% DMSO final in cells; serial dilution; 30 μM highest conc. 1/3 dilution, 10 doses, duplicates). The compounds were used at room temperature and 4 μL of pre-warmed media was added to all wells except column 2 and 23. The negative control was prepared by adding 1% DMSO in media. The positive control was prepared by adding the appropriate positive control compound in final concentration of 60 μM in media. The plate was prepared by adding 4 μL negative control to column 23, 4 μL positive control to column 2 and 4 μL cell suspension to all wells in the plate. The plate with cells was then incubated at 37° C. for 2 hours. The assay signal reagent is the Caspase-Glo solution described above, and 8 μL was added to all wells. The plates were then sealed and measured after 30 minutes.
The activity of a test compound was calculated as percent change in apoptosis induction as follows: […]

MOLP8 cell line = assay: MOLP8 CellEvent Caspase-3/7 Green live-cell IncuCyte apoptosis assay; format: cell-based, human; conditions: averaged values
Method: as §1
Activation of the apoptotic pathway was measured using the CellEvent™ Caspase-3/7 Green ReadyProbes™ Reagent (Thermo Fisher C10423, C10723). This assay produces a green fluorescent stain in cells that enter the apoptosis pathway. CellEvent® Caspase-3/7 Green reagent is a four amino acid peptide (DEVD) conjugated to a nucleic acid-binding dye that is non-fluorescent when not bound to DNA. The CellEvent® Caspase-3/7 Green reagent is intrinsically non-fluorescent, as the DEVD peptide inhibits binding of the dye to DNA. Upon activation of caspase-3/7 in apoptotic cells, the DEVD peptide is cleaved and the free dye can bind DNA, generating a bright green fluorescence. The activation of Caspase-3 and Caspase-7 is downstream of inhibition of MCL-1 or other apoptosis inhibiting proteins in cell lines that are dependent on them.
The live-cell readout on the IncuCyte permits tracking over time of the Caspase activation. […] The IncuCyte readout also allows one to normalize for cell number, as the suspension cells are hard to distribute evenly.
Signals were measured every 2 h for a duration of 22 h. The ratio of the Caspase mask to the Confluence mask, per image, as raw data, was calculated and the kinetic trace for every well was exported to Genedata Screener for analysis.
In Genedata Screener values for 6 h, 12 h, and 22 h from the kinetic traces were extracted. The values were normalized against negative controls (untreated cells). A standard dose-response analysis was performed on the normalized data.
The following data was reported at each of the following three aforementioned time points: (a) The dose-response curve, (b) The qAC50 and qAC50 Mode, and (c) Max Activity.
Cells were maintained in culture medium containing 10% Heat Inactivated (HI) FBS, 2 mM L-Glutamine and 50 μg/mL Gentamycin phenol red free RPMI-1640. Cells were split at 0.4 million/mL twice a week.
On Day 1, plates containing individual wells with test compounds at 10 mM concentration, 150 nL per well. The final concentrations range from […] compound (and no compound control) and compounds were thawed at room temperature for 1 hour. 25 μl of prewarmed medium was added into each well by multidrop (column 1, 3-22, 24), followed by addition of DMSO control (0.6% DMSO) in column 2. The plate was sealed using Breathe-Easy® sealing membrane and shaken for 30 min at room temperature to dissolve the test compound(s) in medium. The plate was then kept in the incubator for 1 hour at 37° C., 5% CO2.
MOLP8 cells in medium at […] (20000/50 μl final in assay) were prepared with CellEvent™ Caspase-3/7 Green Detection Reagent at 4 μM (2 μM final in assay). Once prepared, the cells were added to the test compound plate in an amount of 20000 and the plate was immediately placed in the IncuCyte and imaging started using following settings: 10× objective, 2 s exposure time in green channel, interval of 2 h, acquisition stopped after 22 h.
For analysis in IncuCyte, a Basic Analysis protocol was defined to calculate the “confluence” and “caspase” areas from the “Phase” and “green” images, respectively, as follows: (a) Confluence: Segmentation Adjustment 1, Hole Fill 0, Adjust Size −2, No filters (b) Caspase: Top-Hat segmentation, Radius 10, Threshold 0.3 GCU, Edge Split On with sensitivity 0, Hole Fill 0, Adjust Size 1, and filter on a minimum Area of 20 μm^2. The analyzer is trained on a sufficient number of positive and negative control wells, as well as compound treated wells, verifying that the “confluence” layer detects both live and dead (condensed) cells. […]

[3] = Homo sapiens, MOLP-8, 2 h, read-out: MOLP8 Caspase-Glo AC50 (nM), MOLP8 cells, 2 hours incubation
[4] = Homo sapiens, MOLP-8, 6 h, read-out: MOLP8 Caspase 3/7 AC50 at 6 h (μM), MOLP8 cells, 6 h
[5] = Homo sapiens, MOLP-8, 12 h, read-out: MOLP8 Caspase 3/7 AC50 at 12 h (μM), MOLP8 cells, 12 h
[6] = Homo sapiens, MOLP-8, 22 h, read-out: MOLP8 Caspase 3/7 AC50 at 22 h (μM), MOLP8 cells, 22 h
[7] = read-out: MOLP8 Caspase 3/7 AC50 at 6 h, MOLP8 cells, 6 h
[8] = read-out: MOLP8 Caspase 3/7 AC50 at 12 h, MOLP8 cells, 12 h
[9] = read-out: MOLP8 Caspase 3/7 AC50 at 22 h, MOLP8 cells, 22 h
[10] = read-out: MOLP8 Caspase-Glo AC50, MOLP8 cells, 2 hours incubation

Myeloid Cell Leukemia 1 (Mcl-1), sequence (Q07820 whole entry): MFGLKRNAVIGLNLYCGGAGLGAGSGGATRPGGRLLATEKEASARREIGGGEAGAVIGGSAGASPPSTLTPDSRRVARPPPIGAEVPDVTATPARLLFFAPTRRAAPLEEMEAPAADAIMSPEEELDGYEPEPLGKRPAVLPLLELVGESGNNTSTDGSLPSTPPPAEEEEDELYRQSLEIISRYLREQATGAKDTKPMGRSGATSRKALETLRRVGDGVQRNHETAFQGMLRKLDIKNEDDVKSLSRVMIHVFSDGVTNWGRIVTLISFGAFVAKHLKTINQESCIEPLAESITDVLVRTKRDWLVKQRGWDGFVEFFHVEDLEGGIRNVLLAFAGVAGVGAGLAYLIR

SMILES: Cc1c2c(nn1C)CSCc1cc(n[nH]1)CSc1cc(c3ccccc3c1)OCCCc1c(C(=O)O)n(C)c3c-2c(Cl)ccc13 [Compound 3]
- Ki [1]: 0.08 nM and 0.11 nM
- AC50 [2, 3]: 284 nM
- AC50 (MOLP8 cell line; [4]): 0.6 µM
- AC50 (MOLP8 cell line; [5]): 0.55 µM
- AC50 (MOLP8 cell line; [6]): 0.47 µM

SMILES: COCCn1nc(C)c2c1CN(C)Cc1cc(n(C)n1)CSc1cc(c3ccccc3c1)OCCCc1c(C(=O)O)n(C)c3c-2c(Cl)ccc13 (single isomer, unassigned) [Compound 25]
- Ki [1]: 0.04 nM
- AC50 (MOLP8 cell line; [7]): 0.09 µM
- AC50 (MOLP8 cell line; [8]): 0.1 µM
- AC50 (MOLP8 cell line; [9]): 0.11 µM

SMILES: COCCn1nc(C)c2c1CN(C)Cc1cc(n(C)n1)CSc1cc(c3ccccc3c1)OCCCc1c(C(=O)O)n(C)c3c-2c(Cl)ccc13 (single isomer, unassigned) [Compound 26]
- Ki [1]: 4.14 nM and 5.54 nM
- AC50 [2, 3]: 4330 nM
- AC50 (MOLP8 cell line; [7]): 8.29 µM
- AC50 (MOLP8 cell line; [8]): 7.96 µM
- AC50 (MOLP8 cell line; [9]): 8.61 µM

SMILES: Cc1c2c(nn1CCN(C)C)CN(C)Cc1cc(n(C)n1)CSc1cc(c3ccccc3c1)OCCCc1c(C(=O)O)n(C)c3c-2c(Cl)ccc13 (single isomer, unassigned) [Compound 21]
- Ki [1]: 0.49 nM and 0.31 nM
- AC50 ([2]; MOLP8 cells, 2 hours incubation, read-out: MOLP8 Caspase-Glo AC50): 1600 nM
- AC50 (MOLP8 cell line; [7]): 3.16 µM
- AC50 (MOLP8 cell line; [8]): 2.96 µM
- AC50 (MOLP8 cell line; [9]): 3.09 µM

SMILES: Cc1c2c(nn1CCCN1CCOCC1)CN(C)Cc1cc(n(C)n1)CSc1cc(c3ccccc3c1)OCCCc1c(C(=O)O)n(C)c3c-2c(Cl)ccc13 (single isomer, unassigned) [Compound 35]
- Ki [1]: 0.04 nM
- AC50 (MOLP8 cell line; [7]): 0.15 µM
- AC50 (MOLP8 cell line; [8]): 0.15 µM
- AC50 (MOLP8 cell line; [9]): 0.15 µM

SMILES: CCn1nc2cc1CSc1cc(c3ccccc3c1)OCCCc1c(C(=O)O)n(C)c3c(c(Cl)ccc13)-c1c(nn(C)c1C)CSC2 (single isomer, unassigned) [Compound 44]
- Ki [1]: 4.06 nM
- AC50 [2, 10]: 3560 nM

SMILES: Cc1c2c(nn1C)CSCc1cc(n(CCN3CCOCC3)n1)CSc1cc(c3ccccc3c1)OCCCc1c(C(=O)O)n(C)c3c-2c(Cl)ccc13 [Compound 9]
- Ki [1]: 0.05 nM
- AC50 (MOLP8 cell line; [4]): 0.1 µM
- AC50 (MOLP8 cell line; [5]): 0.097 µM
- AC50 (MOLP8 cell line; [6]): 0.1 µM

SMILES: CCn1nc2cc1CSCc1nn(C)c(C)c1-c1c(Cl)ccc3c(c(C(=O)O)n(C)c13)CCCOc1cc(cc3ccccc13)SC2 [Compound 1]
- Ki [1]: 0.15 nM
- AC50 (MOLP8 cell line; [4]): 0.13 µM
- AC50 (MOLP8 cell line; [5]): 0.13 µM
- AC50 (MOLP8 cell line; [6]): 0.11 µM

SMILES: Cc1c2c(nn1C)CSCc1cc(nn1CCN1CCOCC1)CSc1cc(c3ccccc3c1)OCCCc1c(C(=O)O)n(C)c3c-2c(Cl)ccc13 [Compound 8]
- Ki [1]: 0.13 nM and 0.08 nM
- AC50 (MOLP8 cell line; [4]): 0.24 µM
- AC50 (MOLP8 cell line; [5]): 0.24 µM
- AC50 (MOLP8 cell line; [6]): 0.25 µM

SMILES: Cc1c2c(nn1CCO)CN(C)Cc1cc(n(C)n1)CSc1cc(c3ccccc3c1)OCCCc1c(C(=O)O)n(C)c3c-2c(Cl)ccc13 (single isomer, unassigned) [Compound 37]
- Ki [1]: 0.06 nM and 0.04 nM
- AC50 (MOLP8 cell line; [7]): 0.71 µM
- AC50 (MOLP8 cell line; [8]): 0.62 µM
- AC50 (MOLP8 cell line; [9]): 0.56 µM

SMILES: Cc1c2c(nn1C)CSCc1cc(nn1CCN(C)C)CSc1cc(c3ccccc3c1)OCCCc1c(C(=O)O)n(C)c3c-2c(Cl)ccc13 [Compound 4]
- Ki [1]: 0.09 nM and 0.1 nM
- AC50 (MOLP8 cell line; [4]): 0.22 µM
- AC50 (MOLP8 cell line; [5]): 0.25 µM
- AC50 (MOLP8 cell line; [6]): 0.23 µM

SMILES: CCn1nc2cc1CSc1cc(c3ccccc3c1)OCCCc1c(C(=O)O)n(C)c3c(c(Cl)ccc13)-c1c(nn(C)c1C)CSC2 (single isomer, unassigned) [Compound 43]
- Ki [1]: 0.04 nM
- AC50 [2, 10]: 63 nM

SMILES: Cc1nn(CCO)c2c1-c1c(Cl)ccc3c(c(C(=O)O)n(C)c13)CCCOc1cc(cc3ccccc13)SCc1cc(nn1C)CN(C)C2 (single isomer, unassigned) [Compound 39]
- Ki [1]: 0.06 nM and 0.05 nM
- AC50 (MOLP8 cell line; [7]): 0.65 µM
- AC50 (MOLP8 cell line; [8]): 0.85 µM
- AC50 (MOLP8 cell line; [9]): 0.65 µM

SMILES: Cc1c2c(nn1C)CSCc1cc(n(CCO)n1)CSc1cc(c3ccccc3c1)OCCCc1c(C(=O)O)n(C)c3c-2c(Cl)ccc13 [Compound 7]
- Ki [1]: < 0.094 nM
- AC50 (MOLP8 cell line; [4]): 0.47 µM
- AC50 (MOLP8 cell line; [5]): 0.45 µM
- AC50 (MOLP8 cell line; [6]): 0.46 µM

SMILES: Cc1c2c(nn1C)CSCc1cc(n(CCN(C)C)n1)CSc1cc(c3ccccc3c1)OCCCc1c(C(=O)O)n(C)c3c-2c(Cl)ccc13 [Compound 5]
- Ki [1]: 0.06 nM and 0.08 nM
- AC50 (MOLP8 cell line; [4]): 0.08 µM
- AC50 (MOLP8 cell line; [5]): 0.08 µM
- AC50 (MOLP8 cell line; [6]): 0.07 µM

SMILES: Cc1c2c(nn1C)CSCc1cc(n(CC3CCOCC3)n1)CSc1cc(c3ccccc3c1)OCCCc1c(C(=O)O)n(C)c3c-2c(Cl)ccc13 [Compound 12]
- Ki [1]: 0.05 nM and 0.08 nM
- AC50 (MOLP8 cell line; [4]): 0.18 µM
- AC50 (MOLP8 cell line; [5]): 0.18 µM
- AC50 (MOLP8 cell line; [6]): 0.13 µM
